Data on 6 compounds can be found in ChEMBL document CHEMBL4428052, “Substrate-Guided Design of Selective FXIIa Inhibitors Based on the Plant-Derived Momordica cochinchinensis Trypsin Inhibitor-II (MCoTI-II) Scaffold” (J Med Chem, 2016).

Assay [1] addresses Urokinase-type plasminogen activator (Homo sapiens, UniProt P00749). Briefly: Inhibition of uPA (unknown origin) incubated for 30 mins measured for 7 mins by morrison plot analysis.
For another assay, the target named is Prothrombin (Homo sapiens, UniProt P00734). Briefly: Inhibition of thrombin (unknown origin) using Ac-ATPRpNA as substrate incubated for 30 mins measured for 7 mins by morrison plot analysis.
The target in the next assay is Coagulation factor X (Homo sapiens, UniProt P00742). Briefly: Inhibition of factor 10a (unknown origin) using Ac-QRSRpNA as substrate incubated for 30 mins measured for 7 mins by morrison plot analysis.
Sequence of Coagulation factor X (P00742 41-179 limits assumed): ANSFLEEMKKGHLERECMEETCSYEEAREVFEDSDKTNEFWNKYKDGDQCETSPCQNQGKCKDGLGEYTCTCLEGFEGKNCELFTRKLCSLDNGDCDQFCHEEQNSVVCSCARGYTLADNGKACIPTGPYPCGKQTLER
Sequence of Coagulation factor X (P00742 235-488 limits assumed): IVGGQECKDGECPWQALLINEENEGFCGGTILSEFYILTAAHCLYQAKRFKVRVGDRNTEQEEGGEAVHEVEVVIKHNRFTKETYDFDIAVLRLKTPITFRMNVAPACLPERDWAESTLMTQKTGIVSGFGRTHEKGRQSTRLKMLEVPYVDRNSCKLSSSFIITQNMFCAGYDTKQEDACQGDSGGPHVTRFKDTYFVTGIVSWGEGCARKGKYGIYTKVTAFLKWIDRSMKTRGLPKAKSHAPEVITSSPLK
Another assay concerns the target T1, Coagulation factor XII (Homo sapiens, UniProt P00748).
T1 sequence (P00748 whole entry): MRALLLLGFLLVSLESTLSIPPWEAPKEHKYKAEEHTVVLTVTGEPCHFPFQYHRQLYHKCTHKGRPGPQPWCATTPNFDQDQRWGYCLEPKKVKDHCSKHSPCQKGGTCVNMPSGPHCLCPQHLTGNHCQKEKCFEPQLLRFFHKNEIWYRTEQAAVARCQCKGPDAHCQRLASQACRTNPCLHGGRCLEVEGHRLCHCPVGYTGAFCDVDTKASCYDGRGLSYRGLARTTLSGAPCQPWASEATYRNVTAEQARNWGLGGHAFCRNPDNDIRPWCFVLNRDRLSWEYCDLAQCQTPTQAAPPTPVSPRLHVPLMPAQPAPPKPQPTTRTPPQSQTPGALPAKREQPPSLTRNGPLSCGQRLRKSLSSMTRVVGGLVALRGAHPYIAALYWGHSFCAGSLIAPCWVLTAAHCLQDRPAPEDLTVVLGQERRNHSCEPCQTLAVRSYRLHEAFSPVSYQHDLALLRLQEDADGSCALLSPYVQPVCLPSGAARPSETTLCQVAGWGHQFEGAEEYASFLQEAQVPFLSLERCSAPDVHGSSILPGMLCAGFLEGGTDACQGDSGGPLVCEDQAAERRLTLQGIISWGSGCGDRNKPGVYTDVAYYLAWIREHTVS
Description: Inhibition of factor 12a (unknown origin) using Ac-QRFRpNA as substrate incubated for 30 mins measured for 7 mins by morrison plot analysis.

Assay [2] is filed under the species Homo sapiens. Briefly: Selectivity ratio of Ki for factor 12a (unknown origin) to Ki for factor 10a (unknown origin).
Assay [3] is filed under the species Homo sapiens. Briefly: Selectivity ratio of Ki for factor 10a (unknown origin) to Ki for factor 12a (unknown origin).
The species entered for assay [4] is Homo sapiens. Description: Selectivity ratio of Ki for human plasma kallikrein to Ki for factor 12a (unknown origin).

pKi: −log10 of the molar value. Peptide text beside a SMILES is read from it. A value given as a limit tells only on which side of the number the result lay.

As to `CC[C@H](C)[C@@H]1NC(=O)[C@H](CCCCN)NC(=O)[C@@H]2CCCN2C(=O)[C@H](NC(=O)[C@@H](NC(=O)CNC(=O)CN)C(C)C)CSSC[C@H]2NC(=O)[C@H](C)NC(=O)CNC(=O)[C@@H]3CCCN3C(=O)[C@@H]3CSSC[C@H](C(=O)NCC(=O)N[C@@H](CO)C(=O)NCC(=O)N[C@@H](CO)C(=O)N[C@@H](CC(=O)O)C(=O)O)NC(=O)[C@H](Cc4ccc(O)cc4)NC(=O)CNC(=O)[C@H](CC(N)=O)NC(=O)CNC(=O)[C@H](CCCNC(=N)N)NC(=O)[C@H](CSSC[C@H](NC(=O)[C@H](CCCCN)NC(=O)[C@H](CCCCN)NC(=O)[C@H](CC(C)C)NC1=O)C(=O)N[C@@H](CCCNC(=N)N)C(=O)N[C@@H](CCCNC(=N)N)C(=O)N[C@@H](CC(=O)O)C(=O)N[C@@H](CO)C(=O)N[C@@H](CC(=O)O)C(=O)N3)NC(=O)[C@H]([C@@H](C)CC)NC2=O`, the pKi (in assay [1]; at Prothrombin; at Coagulation factor X) was below 5.00 throughout.
Regarding `CC(=O)N[C@@H](CCC(N)=O)C(=O)N[C@@H](CCCNC(=N)N)C(=O)N[C@@H](CO)C(=O)N[C@H](C=O)CCCNC(=N)N` (Ac-QRSR-aldehyde), the figures for the pKi at Coagulation factor XII and on Coagulation factor X were 5.62 and 6.44, respectively. Also, the Ratio Ki in the assay filed under Homo sapiens [2] worked out at 6.
As for `CC[C@H](C)[C@@H]1NC(=O)[C@H](CCCNC(=N)N)NC(=O)[C@H](Cc2ccccc2)NC(=O)[C@H](NC(=O)[C@H](CCC(N)=O)NC(=O)CNC(=O)CN)CSSC[C@H]2NC(=O)[C@H](C)NC(=O)CNC(=O)[C@@H]3CCCN3C(=O)[C@@H]3CSSC[C@H](C(=O)NCC(=O)N[C@@H](CO)C(=O)NCC(=O)N[C@@H](CO)C(=O)N[C@@H](CC(=O)O)C(=O)O)NC(=O)[C@H](Cc4ccc(O)cc4)NC(=O)CNC(=O)[C@H](CC(N)=O)NC(=O)CNC(=O)[C@H](CCCNC(=N)N)NC(=O)[C@H](CSSC[C@H](NC(=O)[C@H](CCCCN)NC(=O)[C@H](CCCCN)NC(=O)[C@H](Cc4c[nH]c5ccccc45)NC1=O)C(=O)N[C@@H](CCCNC(=N)N)C(=O)N[C@@H](CCCNC(=N)N)C(=O)N[C@@H](CC(=O)O)C(=O)N[C@@H](CO)C(=O)N[C@@H](CC(=O)O)C(=O)N3)NC(=O)[C@H]([C@@H](C)CC)NC2=O`, the negative logarithm of the Ki (pKi) was below 5.00 in assay [1], below 5.00 at Prothrombin and below 4.00 on Coagulation factor X.
On to `CC[C@H](C)[C@@H]1NC(=O)[C@H](CCCNC(=N)N)NC(=O)[C@H](Cc2ccccc2)NC(=O)[C@H](NC(=O)[C@H](CCC(N)=O)NC(=O)CNC(=O)CN)CSSC[C@H]2NC(=O)[C@H](C)NC(=O)CNC(=O)[C@@H]3CCCN3C(=O)[C@@H]3CSSC[C@H](C(=O)NCC(=O)N[C@@H](CO)C(=O)NCC(=O)N[C@@H](CO)C(=O)N[C@@H](CC(=O)O)C(=O)O)NC(=O)[C@H](Cc4ccc(O)cc4)NC(=O)CNC(=O)[C@H](CC(N)=O)NC(=O)CNC(=O)[C@H](CCCNC(=N)N)NC(=O)[C@H](CSSC[C@H](NC(=O)[C@H](CCCCN)NC(=O)[C@H](CCCCN)NC(=O)[C@H](CC(C)C)NC1=O)C(=O)N[C@@H](CCCNC(=N)N)C(=O)N[C@@H](CCCNC(=N)N)C(=O)N[C@@H](CC(=O)O)C(=O)N[C@@H](CO)C(=O)N[C@@H](CC(=O)O)C(=O)N3)NC(=O)[C@H]([C@@H](C)CC)NC2=O`, for which the negative logarithm of the Ki (pKi) in assay [1] is below 5.00; on Prothrombin, below 5.00; at Coagulation factor X it was 6.34. The Ratio Ki in the assay listed under Homo sapiens [3] is 4.
On to `CC[C@H](C)[C@@H]1NC(=O)[C@H](CCCNC(=N)N)NC(=O)[C@H](Cc2ccccc2)NC(=O)[C@H](NC(=O)[C@H](CCC(N)=O)NC(=O)CNC(=O)[C@@H](N)CCCCN)CSSC[C@H]2NC(=O)[C@H](C)NC(=O)CNC(=O)[C@@H]3CCCN3C(=O)[C@@H]3CSSC[C@H](C(=O)NCC(=O)N[C@@H](CO)C(=O)NCC(=O)N[C@@H](CO)C(=O)N[C@@H](CC(=O)O)C(=O)O)NC(=O)[C@H](Cc4ccc(O)cc4)NC(=O)CNC(=O)[C@H](CC(N)=O)NC(=O)CNC(=O)[C@H](CCCNC(=N)N)NC(=O)[C@H](CSSC[C@H](NC(=O)[C@H](CCCCN)NC(=O)[C@H](CCCCN)NC(=O)[C@H](Cc4c[nH]c5ccccc45)NC1=O)C(=O)N[C@@H](CCCNC(=N)N)C(=O)N[C@@H](CCCNC(=N)N)C(=O)N[C@@H](CC(=O)O)C(=O)N[C@@H](CO)C(=O)N[C@@H](CC(=O)O)C(=O)N3)NC(=O)[C@H]([C@@H](C)CC)NC2=O`, for which the negative logarithm of the Ki (pKi) in assay [1] was below 4.30; at Prothrombin it was below 4.30; on Coagulation factor X it was below 4.00. Also, the Ratio Ki in the assay listed under Homo sapiens [4] turned out to be 9.
With `CC(=O)N[C@@H](CCC(N)=O)C(=O)N[C@@H](CCCNC(=N)N)C(=O)N[C@@H](Cc1ccccc1)C(=O)N[C@H](C=O)CCCNC(=N)N` (Ac-QRFR-aldehyde), the results for the pKi at Coagulation factor XII and on Coagulation factor X were 6.74 and 6.24, respectively. In addition, the Ratio Ki in the assay filed under Homo sapiens [3] stood at 3.

The term pKi denotes the Ki on a negative log10 scale, so that one unit is a factor of ten. High values mean a small Ki, low ones a large Ki.
